Test results reported in patent US20090311237A1, “Combination therapy using a soluble hyaluronidase and a bisphosphonate” (priority 2008, published 2009).
Read-outs that look alike come from different tables or passages of the source.

Assay: Pharmacokinetics of ZA in pig serum after IV or SC infusion with or without rHuPH20 (LC-MS-MS, non-compartmental analysis)
Assay type: in vivo
Conditions: female, Yorkshire, pig, serum, […], pig; for bioavailability / Tmax / half-life / Vd/F: sc, SC ZA […], no rHuPH20 (Study Group 2), n=4; for concentration at 0.05 h / concentration at 5 min / concentration at 0.333 h / concentration at 0.5 h / concentration at 1 h: subcutaneous, Study Group 2, SC, ZA […], rHuPH20 0 U/mL, read-out: Zoledronic Acid Serum Concentration
Method: A pharmacokinetic study of zoledronic acid (ZA) co-administered with rHuPH20 in female Yorkshire swines was conducted. The primary objective of the study was to determine the bioavailability of zoledronic acid dosed via subcutaneous (SC) co-administration with human recombinant hyaluronidase PH20 (rHuPH20) and to compare the overall exposure to an equivalent IV dose.
Animals in Study Group 1 were dosed with 0.15 mg/kg ZA given via a 20-minute IV infusion. Animals in Study Groups 2 and 3 were dosed subcutaneously (SC) with 0.15 mg/kg ZA without and with rHuPH20, respectively, in different SC delivery volumes.
Following ZA dose administration, serial blood samples were collected via vascular access ports (VAPs) for serum preparation and determination of ZA concentrations. Blood collection times were at 1, 3, 5, 10, 15, 20, 30, 45, and 60 minutes, and at 1.5, 2, 3, 4, 6, 8, 10, 24, 48, and 72 hours post dose. Urine samples were also collected to compare excretion characteristics between IV and SC routes of administration. Collection times for urine were at 15 minutes before dosing (−15 min.), continuously from dose initiation to 2 hours post dose, and at 4, 6, 8, and 24 hours post dose thereafter.
Serum concentration of ZA was determined using a qualified LC-MS-MS assay after derivatization with diazomethane (Zhu, L S et al. (2006) Rapid Commun. Mass Spectrom. 20: 3421-3426; “Qualification Data of An LC-MS/MS Method for the Determination of Zoledronate in Porcine Serum”, MDS Pharma Services Study No. AA43671-01, Report Date 14 Sep. 2007). The assay range was from 2.0 to 400 ng/mL with a lower limit of quantitation (LLOQ) at 2.0 ng/mL. Urine concentration of ZA was determined by a similar well qualified LC-MS-MS method (“Qualification Data of An LC-MS/MS Method for the Determination of Zoledronate in Porcine Urine”, MDS Pharma Services Study No. AA43671-02, Report Date 14 Sep. 2007) with an assay LLOQ at 10 ng/mL.
Pharmacokinetic (PK) analyses of ZA serum concentration versus time data were conducted using WinNonlin v5.1 (Pharsight, Mountain View, Calif.). Non-compartmental analysis was used for derivation of primary and secondary pharmacokinetic (PK) parameters. AUC, Cmax, and Tmax were compared between dose routes, between co-administration with rHuPH20, and with dose of rHuPH20.

Q: Which bioavailability (read-out: SC Bioavailability (0-8 h), mean) does the source give for `O=P(O)(O)C(O)(Cn1ccnc1)P(=O)(O)O` [ZA, 1-hydroxy-2-(1H-imidazol-1-yl)ethylidene-1,1-bisphosphonic acid] here?
A: 87.7 ± 15%

Q: And the bioavailability (read-out: SC Bioavailability (0-8 h), median)?
A: 86.9%

Q: What about the Tmax (read-out: Tmax, mean) of the same compound?
A: 12.6 min

Q: And the Tmax (read-out: Tmax, median)?
A: 10.2 min

Q: And the half-life (read-out: T½ λz, mean (converted))?
A: 64.2 ± 14.4 min

Q: What about the half-life (read-out: T½ λz, median (converted)) of the same compound?
A: 59.4 min

Q: And the Vd/F (read-out: Vss/F, mean)?
A: 0.607 L/kg

Q: What about the Vd/F (read-out: Vss/F, median) of the same compound?
A: 0.625 L/kg

Q: What about the Vd/F (read-out: Vz/F, mean) of the same compound?
A: 0.784 L/kg

Q: And the Vd/F (read-out: Vz/F, median)?
A: 0.832 L/kg

Q: What about the concentration at 0.05 h (pig ID 59, 100 mL, 16 min) of the same compound?
A: 13.9 ng/mL

Q: What about the concentration at 0.05 h (pig ID 60, 100 mL, 16 min) of the same compound?
A: 51.5 ng/mL

Q: And the concentration at 0.05 h (pig ID 62, 50 mL, 8 min)?
A: 97.6 ng/mL

Q: What about the concentration at 0.05 h (pig ID 69, 25 mL, 4 min) of the same compound?
A: 144 ng/mL

Q: And the concentration at 0.05 h (pig ID 70, 10 mL, 1.6 min)?
A: 174 ng/mL

Q: And the concentration at 5 min (pig ID 59, 100 mL, 16 min)?
A: 32.4 ng/mL

Q: What about the concentration at 5 min (pig ID 60, 100 mL, 16 min) of the same compound?
A: 85 ng/mL

Q: And the concentration at 0.333 h (pig ID 59, 100 mL, 16 min)?
A: 130 ng/mL

Q: And the concentration at 0.333 h (pig ID 60, 100 mL, 16 min)?
A: 255 ng/mL

Q: And the concentration at 0.333 h (pig ID 62, 50 mL, 8 min)?
A: 208 ng/mL

Q: And the concentration at 0.333 h (pig ID 69, 25 mL, 4 min)?
A: 210 ng/mL

Q: What about the concentration at 0.333 h (pig ID 70, 10 mL, 1.6 min) of the same compound?
A: 233 ng/mL

Q: What about the concentration at 0.5 h (pig ID 59, 100 mL, 16 min) of the same compound?
A: 120 ng/mL

Q: And the concentration at 0.5 h (pig ID 60, 100 mL, 16 min)?
A: 211 ng/mL

Q: What about the concentration at 0.5 h (pig ID 62, 50 mL, 8 min) of the same compound?
A: 149 ng/mL

Q: What about the concentration at 0.5 h (pig ID 69, 25 mL, 4 min) of the same compound?
A: 115 ng/mL

Q: And the concentration at 0.5 h (pig ID 70, 10 mL, 1.6 min)?
A: 191 ng/mL

Q: And the concentration at 1 h (pig ID 59, 100 mL, 16 min)?
A: 44.6 ng/mL

Q: What about the concentration at 1 h (pig ID 60, 100 mL, 16 min) of the same compound?
A: 149 ng/mL

Q: What about the concentration at 1 h (pig ID 62, 50 mL, 8 min) of the same compound?
A: 81.6 ng/mL

Q: And the concentration at 1 h (pig ID 69, 25 mL, 4 min)?
A: 74.6 ng/mL
